How the values were obtained:
Format in all cases: functional
[1] = test system: Streptococcus constellatus; test: Antimicrobial activity against Streptococcus constellatus obtained from patient with cystic fibrosis assessed as non-susceptible isolates grown on brain heart infusion agar at 30 ug/ml after 24 hrs at 37 degC by disk diffusion method
[2] = test system: Streptococcus intermedius; test: Antimicrobial activity against Streptococcus intermedius obtained from patient with cystic fibrosis assessed as non-susceptible isolates grown on brain heart infusion agar at 30 ug/ml after 24 hrs at 37 degC by disk diffusion method
[3] = test system: Streptococcus intermedius; test: Antimicrobial activity against Streptococcus intermedius obtained from patient with cystic fibrosis assessed as non-susceptible isolates grown on mueller-Hinton blood agar at 30 ug/ml after 24 hrs at 37 degC by disk diffusion method in presence of 5% defribinated sheep blood
[4] = test system: Streptococcus intermedius; test: Antimicrobial activity against invasive Streptococcus intermedius obtained from non-cystic fibrosis patient assessed as non-susceptible isolates grown on brain heart infusion agar at 30 ug/ml after 24 hrs at 37 degC by disk diffusion method
Streptococcus anginosus [5] = test: Antimicrobial activity against Streptococcus anginosus obtained from patient with cystic fibrosis assessed as non-susceptible isolates grown on brain heart infusion agar at 30 ug/ml after 24 hrs at 37 degC by disk diffusion method
[6] = test system: Streptococcus intermedius; test: Antimicrobial activity against invasive Streptococcus intermedius obtained from non-cystic fibrosis patient assessed as non-susceptible isolates grown on mueller-Hinton blood agar at 30 ug/ml after 24 hrs at 37 degC by disk diffusion method in presence of 5% defribinated sheep blood
Streptococcus anginosus [7] = test: Antimicrobial activity against invasive Streptococcus anginosus obtained from non-cystic fibrosis patient assessed as non-susceptible isolates grown on brain heart infusion agar at 30 ug/ml after 24 hrs at 37 degC by disk diffusion method
[8] = test system: Streptococcus constellatus; test: Antimicrobial activity against invasive Streptococcus constellatus obtained from non-cystic fibrosis patient assessed as non-susceptible isolates grown on brain heart infusion agar at 30 ug/ml after 24 hrs at 37 degC by disk diffusion method
[9] = test system: Streptococcus constellatus; test: Antimicrobial activity against Streptococcus constellatus obtained from patient with cystic fibrosis assessed as non-susceptible isolates grown on mueller-Hinton blood agar at 30 ug/ml after 24 hrs at 37 degC by disk diffusion method in presence of 5% defribinated sheep blood
Streptococcus anginosus [10] = test: Antimicrobial activity against invasive Streptococcus anginosus obtained from non-cystic fibrosis patient assessed as non-susceptible isolates grown on mueller-Hinton blood agar at 30 ug/ml after 24 hrs at 37 degC by disk diffusion method in presence of 5% defribinated sheep blood
Streptococcus anginosus [11] = test: Antimicrobial activity against Streptococcus anginosus obtained from patient with cystic fibrosis assessed as non-susceptible isolates grown on mueller-Hinton blood agar at 30 ug/ml after 24 hrs at 37 degC by disk diffusion method in presence of 5% defribinated sheep blood
[12] = test system: Streptococcus constellatus; test: Antimicrobial activity against invasive Streptococcus constellatus obtained from non-cystic fibrosis patient assessed as non-susceptible isolates grown on mueller-Hinton blood agar at 30 ug/ml after 24 hrs at 37 degC by disk diffusion method in presence of 5% defribinated sheep blood
[13] = test system: Streptococcus intermedius; test: Antimicrobial activity against Streptococcus intermedius obtained from patient with cystic fibrosis assessed as non-susceptible isolates grown on brain heart infusion agar at 2 ug/ml after 24 hrs at 37 degC by disk diffusion method; details: at 2 µg/mL
[14] = test system: Streptococcus intermedius; test: Antimicrobial activity against invasive Streptococcus intermedius obtained from non-cystic fibrosis patient assessed as non-susceptible isolates grown on brain heart infusion agar at 2 ug/ml after 24 hrs at 37 degC by disk diffusion method; details: at 2 µg/mL
[15] = test system: Streptococcus constellatus; test: Antimicrobial activity against Streptococcus constellatus obtained from patient with cystic fibrosis assessed as non-susceptible isolates grown on mueller-Hinton blood agar at 2 ug/ml after 24 hrs at 37 degC by disk diffusion method in presence of 5% defribinated sheep blood
Streptococcus anginosus [16] = test: Antimicrobial activity against Streptococcus anginosus obtained from patient with cystic fibrosis assessed as non-susceptible isolates grown on mueller-Hinton blood agar at 2 ug/ml after 24 hrs at 37 degC by disk diffusion method in presence of 5% defribinated sheep blood
[17] = test system: Streptococcus intermedius; test: Antimicrobial activity against invasive Streptococcus intermedius obtained from non-cystic fibrosis patient assessed as non-susceptible isolates grown on mueller-Hinton blood agar at 2 ug/ml after 24 hrs at 37 degC by disk diffusion method in presence of 5% defribinated sheep blood
Streptococcus anginosus [18] = test: Antimicrobial activity against Streptococcus anginosus obtained from patient with cystic fibrosis assessed as non-susceptible isolates grown on brain heart infusion agar at 2 ug/ml after 24 hrs at 37 degC by disk diffusion method; details: at 2 µg/mL
[19] = test system: Streptococcus intermedius; test: Antimicrobial activity against Streptococcus intermedius obtained from patient with cystic fibrosis assessed as non-susceptible isolates grown on mueller-Hinton blood agar at 2 ug/ml after 24 hrs at 37 degC by disk diffusion method in presence of 5% defribinated sheep blood
[20] = test system: Streptococcus constellatus; test: Antimicrobial activity against Streptococcus constellatus obtained from patient with cystic fibrosis assessed as non-susceptible isolates grown on brain heart infusion agar at 2 ug/ml after 24 hrs at 37 degC by disk diffusion method; details: at 2 µg/mL
Streptococcus anginosus [21] = test: Antimicrobial activity against invasive Streptococcus anginosus obtained from non-cystic fibrosis patient assessed as non-susceptible isolates grown on mueller-Hinton blood agar at 2 ug/ml after 24 hrs at 37 degC by disk diffusion method in presence of 5% defribinated sheep blood
[22] = test system: Streptococcus constellatus; test: Antimicrobial activity against invasive Streptococcus constellatus obtained from non-cystic fibrosis patient assessed as non-susceptible isolates grown on brain heart infusion agar at 2 ug/ml after 24 hrs at 37 degC by disk diffusion method; details: at 2 µg/mL
Streptococcus anginosus [23] = test: Antimicrobial activity against invasive Streptococcus anginosus obtained from non-cystic fibrosis patient assessed as non-susceptible isolates grown on brain heart infusion agar at 2 ug/ml after 24 hrs at 37 degC by disk diffusion method; details: at 2 µg/mL
[24] = test system: Streptococcus constellatus; test: Antimicrobial activity against invasive Streptococcus constellatus obtained from non-cystic fibrosis patient assessed as non-susceptible isolates grown on mueller-Hinton blood agar at 2 ug/ml after 24 hrs at 37 degC by disk diffusion method in presence of 5% defribinated sheep blood
Streptococcus anginosus [25] = test: Antimicrobial activity against Streptococcus anginosus obtained from patient with cystic fibrosis assessed as non-susceptible isolates grown on brain heart infusion agar at 15 ug/ml after 24 hrs at 37 degC by disk diffusion method
[26] = test system: Streptococcus constellatus; test: Antimicrobial activity against invasive Streptococcus constellatus obtained from non-cystic fibrosis patient assessed as non-susceptible isolates grown on brain heart infusion agar at 15 ug/ml after 24 hrs at 37 degC by disk diffusion method
Streptococcus anginosus [27] = test: Antimicrobial activity against invasive Streptococcus anginosus obtained from non-cystic fibrosis patient assessed as non-susceptible isolates grown on mueller-Hinton blood agar at 15 ug/ml after 24 hrs at 37 degC by disk diffusion method in presence of 5% defribinated sheep blood
[28] = test system: Streptococcus intermedius; test: Antimicrobial activity against invasive Streptococcus intermedius obtained from non-cystic fibrosis patient assessed as non-susceptible isolates grown on brain heart infusion agar at 15 ug/ml after 24 hrs at 37 degC by disk diffusion method
Streptococcus anginosus [29] = test: Antimicrobial activity against invasive Streptococcus anginosus obtained from non-cystic fibrosis patient assessed as non-susceptible isolates grown on brain heart infusion agar at 15 ug/ml after 24 hrs at 37 degC by disk diffusion method
[30] = test system: Streptococcus intermedius; test: Antimicrobial activity against Streptococcus intermedius obtained from patient with cystic fibrosis assessed as non-susceptible isolates grown on mueller-Hinton blood agar at 15 ug/ml after 24 hrs at 37 degC by disk diffusion method in presence of 5% defribinated sheep blood
[31] = test system: Streptococcus intermedius; test: Antimicrobial activity against invasive Streptococcus intermedius obtained from non-cystic fibrosis patient assessed as non-susceptible isolates grown on mueller-Hinton blood agar at 15 ug/ml after 24 hrs at 37 degC by disk diffusion method in presence of 5% defribinated sheep blood
Streptococcus anginosus [32] = test: Antimicrobial activity against Streptococcus anginosus obtained from patient with cystic fibrosis assessed as non-susceptible isolates grown on mueller-Hinton blood agar at 15 ug/ml after 24 hrs at 37 degC by disk diffusion method in presence of 5% defribinated sheep blood
[33] = test system: Streptococcus constellatus; test: Antimicrobial activity against Streptococcus constellatus obtained from patient with cystic fibrosis assessed as non-susceptible isolates grown on mueller-Hinton blood agar at 15 ug/ml after 24 hrs at 37 degC by disk diffusion method in presence of 5% defribinated sheep blood
[34] = test system: Streptococcus intermedius; test: Antimicrobial activity against Streptococcus intermedius obtained from patient with cystic fibrosis assessed as non-susceptible isolates grown on brain heart infusion agar at 15 ug/ml after 24 hrs at 37 degC by disk diffusion method
[35] = test system: Streptococcus constellatus; test: Antimicrobial activity against invasive Streptococcus constellatus obtained from non-cystic fibrosis patient assessed as non-susceptible isolates grown on mueller-Hinton blood agar at 15 ug/ml after 24 hrs at 37 degC by disk diffusion method in presence of 5% defribinated sheep blood
[36] = test system: Streptococcus constellatus; test: Antimicrobial activity against Streptococcus constellatus obtained from patient with cystic fibrosis assessed as non-susceptible isolates grown on brain heart infusion agar at 15 ug/ml after 24 hrs at 37 degC by disk diffusion method

Structure (SMILES)	Activity [3] [%]	Activity [6] [%]	Activity [9] [%]	Activity (Streptococcus anginosus [10]) [%]	Activity (Streptococcus anginosus [11]) [%]	Activity [12] [%]	Activity (Streptococcus anginosus [25]) [%]	Activity [26] [%]	Activity (Streptococcus anginosus [27]) [%]	Activity [28] [%]	Activity (Streptococcus anginosus [29]) [%]	Activity [30] [%]	Activity [31] [%]	Activity (Streptococcus anginosus [32]) [%]	Activity [33] [%]	Activity [34] [%]	Activity [35] [%]	Activity [36] [%]	other results
CO/N=C(\C(=O)N[C@@H]1C(=O)N2C(C(=O)[O-])=C(C[N+]3(C)CCCC3)CS[C@H]12)c1csc(N)n1	0	0	0	0	2.5	0													Activity [1]: 0%; Activity [2]: 3.1%; Activity [4]: 0%; Activity (Streptococcus anginosus [5]): 0%; Activity (Streptococcus anginosus [7]): 0%; Activity [8]: 0%
CCC[C@@H]1C[C@@H](C(=O)N[C@@H]([C@H]2O[C@H](SC)[C@H](O)[C@@H](O)[C@H]2O)[C@H](C)Cl)N(C)C1 [CLINDAMYCIN]																			Activity [13]: 28.1%; Activity [14]: 12.5%; Activity [15]: 20%; Activity (Streptococcus anginosus [16]): 52.5%; Activity [17]: 28.6%; Activity (Streptococcus anginosus [18]): 56.5%; Activity [19]: 50%; Activity [20]: 62.5%; Activity (Streptococcus anginosus [21]): 0%; Activity [22]: 0%; Activity (Streptococcus anginosus [23]): 0%; Activity [24]: 0%
CO/N=C(\C(=O)N[C@@H]1C(=O)N2C(C(=O)O)=C(CSc3nc(=O)c(O)nn3C)CS[C@H]12)c1csc(N)n1 [CEFTRIAXONE]	0	0	0	0	0	0													
CN(C)[C@@H]1C(O)=C(C(N)=O)C(=O)[C@@]2(O)C(O)=C3C(=O)c4c(O)cccc4[C@@](C)(O)[C@H]3C[C@@H]12 [TETRACYCLINE]	0	0	0		27.5	33.3													
CC[C@H]1OC(=O)[C@H](C)[C@@H](O[C@H]2C[C@@](C)(OC)[C@@H](O)[C@H](C)O2)[C@H](C)[C@@H](O[C@@H]2O[C@H](C)C[C@H](N(C)C)[C@H]2O)[C@](C)(O)C[C@@H](C)CN(C)[C@H](C)[C@@H](O)[C@]1(C)O [AZITHROMYCIN]							56.5	7.7	11.1	16.7	0	50	28.6	60	20	34.4	0	65	
CC[C@H]1OC(=O)[C@H](C)[C@@H](O[C@H]2C[C@@](C)(OC)[C@@H](O)[C@H](C)O2)[C@H](C)[C@@H](O[C@@H]2O[C@H](C)C[C@H](N(C)C)[C@H]2O)[C@](C)(O)C[C@@H](C)C(=O)[C@H](C)[C@@H](O)[C@]1(C)O [ERYTHROMYCIN]							52.2	7.7	11.1	16.7	11.1	50	28.6	57.5	20	34.4	0	65	

Source: ChEMBL document CHEMBL1629685, “Macrolide and clindamycin resistance in Streptococcus milleri group isolates from the airways of cystic fibrosis patients” (2010)
